The record followed here is PubChem BioAssay (NCI).

Test systems include UACC-257 melanoma; A498 renal; NCI-H522 lung; NCI-H23 lung; MCF7 breast; NCI-H460 lung; PC-3 prostate; OVCAR-5 ovarian; SN12C renal; A549 NSCLC.
Test in all cases: NCI anticancer screen, dose series, 48 h

≈ marks a conversion by molar mass, not a printed value.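 Protocol summary: plate cells (96-well), add compound at 5 concentrations, incubate 48 h, interpolate endpoints linearly. At the GI50, growth is halved. TGI: concentration producing complete growth inhibition.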

For the molecule `COc1c2c(cc3c1C(O)N1CC[C@]34[C@H]3O[C@H]3[C@H](OC)C[C@@H]14)OCO2` (some centres undefined), the TGI in the assay on UACC-257 melanoma is greater than 100 µM; in the assay on A498 renal, greater than 100 µM; in the assay on NCI-H522 lung, 96.7 µM; in the assay on NCI-H23 lung, greater than 100 µM; in the assay on MCF7 breast, greater than 100 µM; in the assay on NCI-H460 lung, greater than 100 µM. For the same molecule, the TGI in the assay on PC-3 prostate, in the assay with OVCAR-5 ovarian, with SN12C renal and in the assay with A549 NSCLC was greater than 100 µM in each case.
For the molecule `NCCNc1nc(N2CCCC2)c2nc(Cl)c(NCc3ccccc3)nc2n1`, the TGI in the assay with UACC-257 melanoma stood at 4 µM; in the assay with A498 renal, 4.4 µM; in the assay on NCI-H522 lung, 3.31 µM; with NCI-H23 lung, 5.46 µM; in the assay on MCF7 breast, 3.31 µM; with NCI-H460 lung, 3.54 µM. The TGI in the assay with PC-3 prostate was determined as 7.62 µM; in the assay on OVCAR-5 ovarian, 7.88 µM; in the assay with SN12C renal it was 2.92 µM; in the assay on A549 NSCLC, 3.36 µM.
For `CC1(C)CC(=O)C2=C(C1)NC(SSC1=C(C#N)C(c3ccc(F)cc3)C3=C(CC(C)(C)CC3=O)N1)=C(C#N)C2c1ccc(F)cc1` (centres undefined), the GI50 in the assay on UACC-257 melanoma is 30.2 µg/mL (≈ 46.2 µM); with NCI-H23 lung it was 31.1 µg/mL (≈ 47.5 µM); in the assay with MCF7 breast, 32.3 µg/mL (≈ 49.3 µM); with NCI-H460 lung, 47.8 µg/mL (≈ 73 µM); in the assay with PC-3 prostate, 27.1 µg/mL (≈ 41.3 µM); in the assay on OVCAR-5 ovarian, 106 µg/mL (≈ 162 µM). Further, the GI50 is 27.9 µg/mL (≈ 42.6 µM) with SN12C renal and 15 µg/mL (≈ 22.9 µM) in the assay on A549 NSCLC. In addition, the TGI was 51.6 µg/mL in the assay with UACC-257 melanoma; 68.2 µg/mL in the assay with NCI-H23 lung; 72.3 µg/mL in the assay with MCF7 breast; greater than 150 µg/mL in the assay with NCI-H460 lung; 48 µg/mL with PC-3 prostate; greater than 150 µg/mL in the assay with OVCAR-5 ovarian. In addition, the TGI in the assay on SN12C renal stood at 52.1 µg/mL; in the assay on A549 NSCLC, 15 µg/mL.
In the case of `N#CC(c1ccccc1)N1CCCN(C(C#N)c2ccccc2)C1c1ccccc1O` (centres undefined), the TGI in the assay on UACC-257 melanoma, in the assay with A498 renal, with NCI-H522 lung, with NCI-H23 lung, in the assay on MCF7 breast and in the assay with NCI-H460 lung was greater than 100 µM in each case. The TGI in the assay on PC-3 prostate, with OVCAR-5 ovarian, in the assay on SN12C renal and in the assay on A549 NSCLC was greater than 100 µM throughout.
Consider `Nc1ccc2c(c1)C(=O)N(O)C2=O`, for which the TGI in the assay on UACC-257 melanoma, in the assay with A498 renal, in the assay with NCI-H23 lung, in the assay with NCI-H460 lung, in the assay on OVCAR-5 ovarian and in the assay with SN12C renal was greater than 100 µM throughout. In the assay on A549 NSCLC, this molecule displayed a TGI greater than 100 µM.
For `O=C(O)C(CSC(c1ccccc1)(c1ccccc1)c1ccccc1)N=Cc1cccs1` (centres undefined), the TGI is greater than 100 µM in the assay on UACC-257 melanoma; greater than 96.8 µM with A498 renal; greater than 20.1 µM in the assay on NCI-H522 lung; 43.3 µM in the assay with NCI-H23 lung; greater than 56 µM in the assay on MCF7 breast; greater than 48.9 µM in the assay with NCI-H460 lung. Also, the TGI in the assay on PC-3 prostate is greater than 42.4 µM; with OVCAR-5 ovarian, greater than 100 µM; with SN12C renal, 98.1 µM; with A549 NSCLC it was greater than 100 µM.
Consider `COC(=O)C1C(C)N1C` (centres undefined), for which the TGI in the assay on UACC-257 melanoma, in the assay on NCI-H522 lung, in the assay on NCI-H23 lung, with NCI-H460 lung, with SN12C renal and with A549 NSCLC was greater than 100 µM in each case.
As to `O=C(CCN1CC2CCC(CC2)C1)c1cccs1`, the TGI in the assay on UACC-257 melanoma was 30.4 µM; in the assay on A498 renal it was greater than 100 µM; in the assay on NCI-H522 lung, 36.3 µM; in the assay with NCI-H23 lung, 36.7 µM; in the assay on MCF7 breast, 29.4 µM; with NCI-H460 lung, 37.5 µM. In addition, the TGI is 31.1 µM in the assay with PC-3 prostate, 33.1 µM with OVCAR-5 ovarian, 37.6 µM in the assay with SN12C renal and greater than 57.6 µM in the assay with A549 NSCLC.
Turning to `CCC(C)C1NC(=O)C2CCCN2C(=O)C(CC2CO2)OC(=O)CCNC(=O)C(C)N(C)C(=O)C(C(C)C)N(C)C1=O` (centres undefined), the TGI in the assay with A498 renal, in the assay with NCI-H522 lung, in the assay on NCI-H23 lung, with MCF7 breast, with NCI-H460 lung and with PC-3 prostate was greater than 100 µM in each case. Moreover, the TGI in the assay on OVCAR-5 ovarian is greater than 100 µM; in the assay on SN12C renal, greater than 100 µM; in the assay with A549 NSCLC, greater than 33.6 µM.
In the case of `CS(=O)(=O)c1nc(-c2cc3c(c(S(C)(=O)=O)n2)CCCC3)cc2c1CCCC2`, the TGI was greater than 100 µM in the assay on UACC-257 melanoma; greater than 100 µM in the assay on A498 renal; greater than 77.6 µM with NCI-H522 lung; greater than 100 µM in the assay with NCI-H23 lung; greater than 100 µM in the assay with MCF7 breast; greater than 100 µM with PC-3 prostate. Also, the TGI in the assay on OVCAR-5 ovarian, with SN12C renal and in the assay with A549 NSCLC was greater than 100 µM throughout.
For `C[C@]12CC[C@@H]3c4ccccc4CC[C@H]3[C@@H]1CC[C@@H]2O`, the TGI with UACC-257 melanoma, in the assay with NCI-H522 lung, with NCI-H23 lung, with NCI-H460 lung, with SN12C renal and with A549 NSCLC was greater than 100 µM throughout.
With `O=S(=O)(O)c1cccc2c(N=Nc3c(O)ccc4ccccc34)cccc12`, the TGI with UACC-257 melanoma, in the assay on A498 renal, in the assay on NCI-H522 lung, in the assay with NCI-H23 lung, in the assay on PC-3 prostate and in the assay on OVCAR-5 ovarian was greater than 100 µM each time. In addition, the TGI with SN12C renal and with A549 NSCLC was greater than 100 µM each time.
`[O-][N+](CCO)(CCO)c1ncnc2nc[nH]c12`: the TGI with UACC-257 melanoma, with A498 renal, in the assay with NCI-H522 lung, in the assay with NCI-H23 lung, in the assay on MCF7 breast and in the assay on PC-3 prostate was greater than 100 µM each time. The TGI in the assay with OVCAR-5 ovarian, with SN12C renal and in the assay on A549 NSCLC was greater than 100 µM in each case.
For `CC(Sc1ccccc1)C(CO)(CO)[N+](=O)[O-]` (centres undefined), the TGI stood at 30.2 µM with UACC-257 melanoma; 26.3 µM with NCI-H522 lung; 33.3 µM with NCI-H23 lung; 50.7 µM in the assay on NCI-H460 lung; 36.9 µM in the assay on OVCAR-5 ovarian; 31.2 µM in the assay with SN12C renal. Also, the TGI in the assay with A549 NSCLC came out at 34.1 µM.
As for `CC(=O)N(C)c1ccc2c(ccc[n+]2[O-])c1[N+](=O)[O-]`, the TGI in the assay on UACC-257 melanoma, with A498 renal, in the assay with NCI-H23 lung, in the assay on NCI-H460 lung, in the assay on OVCAR-5 ovarian and with SN12C renal was greater than 100 µM throughout. Further, the TGI in the assay on A549 NSCLC was greater than 100 µM.
